According to patent publication US20230219969A1 (priority 2020, published 2023):

What was measured:
[1] = target: T1, 5-HT2C edited (accession number AAF35842.1) (Homo sapiens, UniProt P28335, I156V/I160V/N158S); assay: cell-based
Target sequence in this assay (P28335 33-458 I156V/N158S/I160V limits assumed): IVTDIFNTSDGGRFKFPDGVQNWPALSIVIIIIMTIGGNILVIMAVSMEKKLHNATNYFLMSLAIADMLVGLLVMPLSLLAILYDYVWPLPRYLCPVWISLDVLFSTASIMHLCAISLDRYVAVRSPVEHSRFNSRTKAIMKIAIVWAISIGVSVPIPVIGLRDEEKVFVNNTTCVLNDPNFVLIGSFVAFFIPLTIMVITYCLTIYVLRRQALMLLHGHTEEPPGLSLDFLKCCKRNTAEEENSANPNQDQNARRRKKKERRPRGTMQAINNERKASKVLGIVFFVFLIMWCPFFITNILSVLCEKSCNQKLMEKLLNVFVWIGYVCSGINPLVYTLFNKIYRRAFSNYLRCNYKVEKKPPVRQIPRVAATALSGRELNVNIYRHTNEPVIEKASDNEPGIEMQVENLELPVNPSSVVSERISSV

[2] = target: T1, 5-HT2C edited (accession number AAF35842.1); assay: biochemical; type: binding
Target sequence in this assay (P28335 whole entry I156V/N158S/I160V, looked up): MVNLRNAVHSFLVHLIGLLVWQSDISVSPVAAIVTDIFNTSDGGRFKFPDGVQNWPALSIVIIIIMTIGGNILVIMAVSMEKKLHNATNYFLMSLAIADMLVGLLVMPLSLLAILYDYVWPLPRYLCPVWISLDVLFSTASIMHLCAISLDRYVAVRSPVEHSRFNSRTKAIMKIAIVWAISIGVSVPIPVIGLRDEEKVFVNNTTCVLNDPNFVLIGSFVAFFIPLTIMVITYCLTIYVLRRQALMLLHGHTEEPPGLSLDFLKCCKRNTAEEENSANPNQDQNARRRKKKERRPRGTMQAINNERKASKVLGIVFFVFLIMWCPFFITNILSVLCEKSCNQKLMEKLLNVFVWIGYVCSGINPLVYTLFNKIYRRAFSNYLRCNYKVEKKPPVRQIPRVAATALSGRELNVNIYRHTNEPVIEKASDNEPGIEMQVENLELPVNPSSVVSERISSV

Structure (SMILES) | EC50 [1] [µM] | IC50 [2] [µM]
CN[C@H](C)Cn1ccc2cnccc21 [Example 38, (R)—N-methyl-1-(1H-pyrrolo[3,2-c]pyridin-1-yl)propan-2-amine] | > 10 | > 10
COc1cnc2c(ccn2C[C@@H](C)N)c1 [Example 34, (R)-1-(5-methoxy-1H-pyrrolo[2,3-b]pyridin-1-yl)propan-2-amine] | 1 to 10 | 1 to 10
CN[C@H](C)Cn1ccc2cc(OC)cnc21 [Example 35, (R)-1-(5-methoxy-1H-pyrrolo[2,3-b]pyridin-1-yl)-N-methylpropan-2-amine] | 1 to 10 | > 10
CN(C)C(C)(C)Cn1ccc2cc(F)ccc21 [Example 14, 1-(5-fluoro-1H-indol-1-yl)-N,N,2-trimethylpropan-2-amine] | > 10 | > 10
COc1ccc2c(c1)CCN(CCN(C)C)C2 [Example 11, 2-(6-methoxy-3,4-dihydroisoguinolin-2(1H)-yl)-N,N-dimethylethan-1-amine] | > 10 | 0.101 to 1
COc1ccc2c(ccn2CC(C)(C)N(C)C)c1 [Example 1, 1-(5-methoxy-1H-indol-1-yl)-N,N,2-trimethylpropan-2-amine] | > 10 | 1 to 10
COc1ccc2c(ccn2CCN(C)C)n1 [Example 3, 2-(5-methoxy-1H-pyrrolo[3,2-b]pyridin-1-yl)-N,N-dimethylethan-1-amine] | > 10 | 0.101 to 1
COc1ccc2c(ccn2CC(C)(C)N)c1 [Example 42, 1-(5-methoxy-1H-indol-1-yl)-2-methylpropan-2-amine] | 1 to 10 | 1 to 10
COc1ccc2c(ccn2[C@H]2C[C@H](N(C)C)C2)c1 [Example 25, (1r,3r)-3-(5-methoxy-1H-indol-1-yl)-N,N-dimethylcyclobutan-1-amine] | > 10 | 1 to 10
CC(C)(N)Cn1ccc2c(F)c(F)ccc21 [Example 41, 1-(4,5-difluoro-1H-indol-1-yl)-2-methylpropan-2-amine] | 0.101 to 1 | 0.101 to 1
COc1ccc2c(ccn2CC(C)(C)N(C)C)c1F [Example 15, 1-(4-fluoro-5-methoxy-1H-indol-1-yl)-N,N,2-trimethylpropan-2-amine] | > 10 | > 10
COc1ccc2c(ccn2C[C@@H](C)N(C)C)n1 [Example 30, (R)-1-(5-methoxy-1H-pyrrolo[3,2-b]pyridin-1-yl)-N,N-dimethylpropan-2-amine] | > 10 | > 10
COc1cc2ccn(CC(C)(C)N(C)C)c2cc1F [Example 16, 1-(6-fluoro-5-methoxy-1H-indol-1-yl)-N,N,2-trimethylpropan-2-amine] | > 10 | > 10
CN(C)C(C)(C)Cn1ccc2c(F)c(F)ccc21 [Example 12, 1-(4,5-difluoro-1H-indol-1-yl)-N,N,2-trimethylpropan-2-amine] | > 10 | > 10
COc1ccc2c(ccn2C[C@@H](C)N)n1 [Example 28, (R)-1-(5-methoxy-1H-pyrrolo[3,2-b]pyridin-1-yl)propan-2-amine] | 1 to 10 | > 10
COc1cnc2c(ccn2C[C@@H](C)N(C)C)c1 [Example 36, (R)-1-(5-methoxy-1H-pyrrolo[2,3-b]pyridin-1-yl)-N,N-dimethylpropan-2-amine] | 1 to 10 | 1 to 10
COc1ccc2c(c1)CN(CCN(C)C)C2 [Example 10, 2-(5-methoxyisoindolin-2-yl)-N,N-dimethylethan-1-amine] | 1 to 10 | 1 to 10
COc1ccc2c(ccn2C(=O)[C@@H](C)N(C)C)c1 [Example 47, (R)-2-(dimethylamino)-1-(5-methoxy-1H-indol-1-yl)propan-1-one] | > 10 | > 10
COc1cc2ccn(C[C@@H](C)N(C)C)c2cn1 [Example 33, (R)-1-(5-methoxy-1H-pyrrolo[2,3-c]pyridin-1-yl)-N,N-dimethylpropan-2-amine] | > 10 | > 10
COc1cnc2c(ccn2CCN(C)C)c1 [Example 5, 2-(5-methoxy-1H-pyrrolo[2,3-b]pyridin-1-yl)-N,N-dimethylethan-1-amine] | > 10 | 0.101 to 1
CN[C@H](C)Cn1ccc2nc(OC)ccc21 [Example 29, (R)-1-(5-methoxy-1H-pyrrolo[3,2-b]pyridin-1-yl)-N-methylpropan-2-amine] | > 10 | > 10
C[C@H](Cn1ccc2cncnc21)N(C)C [Example 27, (R)—N,N-dimethyl-1-(7H-pyrrolo[2,3-d]pyrimidin-7-yl)propan-2-amine] | > 10 | > 10
COc1ncc2c(ccn2CC(C)(C)N(C)C)n1 [Example 23, 1-(2-methoxy-5H-pyrrolo[3,2-d]pyrimidin-5-yl)-N,N,2-trimethylpropan-2-amine] | > 10 | > 10
C[C@H](C(=O)n1ccc2cc(F)ccc21)N(C)C [Example 48, (R)-2-(dimethylamino)-1-(5-fluoro-1H-indol-1-yl)propan-1-one] | > 10 | 1 to 10
